Data on six molecules can be found in patent US8623832B2, “Peptide compositions that bind TLR-4” (The Board of Regents of the University of Oklahoma, priority 2011, dated 2014).

One assay relates to JAWS II dendritic cells. The assay can be described thus: LPS-induced TNF-α release by JAWS II dendritic cells (ELISA). The class given is cell-based, mouse. As to conditions: for LPS-induced TNF-α, mean values: post-LPS model; for LPS-induced TNF-α secretion, pre-LPS model: peptide 1 or 10 μM 1 hour prior to LPS 75 ng/ml, total 5 hours. The protocol: JAWS II dendritic cell culture: The JAWS II dendritic cell line is an immortalized cell line derived from bone marrow of C57BL/6 mice (ATCC, Manassas, Va.). The cells were maintained in Alpha-modified minimum essential medium (Sigma, St Louis, Mo.) supplemented with 20% fetal bovine serum (FBS), 4 mM L-glutamine, 100 U/ml penicillin, 100 μg/ml streptomycin, 50 μg/ml gentamicin (Invitrogen, Grand Island, N.Y.) and 5 ng/ml of recombinant murine granulocyte macrophage-colony stimulating factor (Peprotech, Rocky Hill, N.J.). (Awasthi et al., 2005). The culture medium was replaced with fresh medium every 48 h.
The JAWS II dendritic cells (1 million) were treated with SP-A peptides (1 or 10 μM) with or without E. coli derived LPS (75 ng/ml, highly purified, low protein, Calbiochem, CA). In order to observe the anti-inflammatory properties of the SP-A peptides, the cells were treated with peptides for 1 hour prior to addition of LPS (pre-LPS treatment) or after 4 hours incubation with LPS (Post-LPS treatment). The incubation was continued for a total period of 5 hours. Control cells were treated with vehicle, LPS (75 ng/ml), and/or SP-A peptides (1 and 10 μM) for a period of 5 hours. The cell-free supernatants were collected and stored at −80° C. for further analysis.
Cytokine (TNF-α) measurement: The TNF-α levels were measured in cell-free supernatants of JAWS II dendritic cells treated with LPS with or without SP-A peptides by enzyme linked immunosorbent assay (ELISA) as described earlier (Awasthi and Cox, 2003).

Assay [1] has as its system primary adult baboon lung DCs and fetal baboon lung DC-precursor cells. Nature of the assay: TNF-α secretion against E. coli by baboon lung DCs (ELISA). The format is cell-based. As to conditions: 3 hours phagocytosis reaction; protein added alone. The method, then: After confirming that the fluorescence is of phagocytosed bioparticles, comprehensive experiments were performed in presence and absence of effector molecules (SP-A and TLR4-MD2 proteins). The cells were pulsed with purified, native baboon lung SP-A and recombinant human TLR4-MD2 or MD2 proteins (RnD Systems, MN) for an hour prior to phagocytosis assay with pHrodo-conjugated, heat-killed E. coli K12 bioparticles (Invitrogen-Molecular Probes, CA). MD2 protein was also included, because SP-A is known to interact with MD2, and it was questioned if MD2 can influence the immune functions of DC-population. The assay was performed in serum-free Opti-MEM medium (Invitrogen, CA), as described by the manufacturer (Invitrogen-Molecular Probes, CA). The assay mixtures were incubated for another 3 hours at 37° C. in 5% CO2 incubator. The fluorescence readings were taken at 550 nm excitation and 600 nm emission wavelengths using SpectraMax M2 spectrofluorometer (Molecular Devices, CA).
Cytokine (TNF-α) measurement: The TNF-α levels were measured in cell-free supernatants by enzyme linked immunosorbent assay (ELISA) using a commercially available kit (eBioscience, CA), as per the manufacturer's instructions. Briefly, the microwells of a 96 well plate were coated with diluted purified anti-human TNF-α antibody. The wells were washed, and nonspecific sites were blocked. Diluted recombinant human TNF-α (7.8-500 pg/ml standard) and cell-free-supernatant (1:10) were added to the antibody-coated wells, and the plate was incubated overnight at 4° C. The next day, the plate was washed and incubated with biotin-conjugated anti-human TNF-α antibody followed by avidin-horseradish peroxidase and substrate solution. The reaction was stopped by adding 2 N H2SO4 and read at 450 nm (Molecular Devices, CA).

The test system is the same in assay [2]. Nature of the assay: Phagocytosis of pHrodo-labeled E. coli bioparticles by primary baboon lung DCs / fetal DC-precursor cells. The class given is cell-based. The following applies: SP-A 2 μM, TLR4-MD2 0.3 μM. The method, then: Freshly collected lobe of the lung or whole lung samples of adult and fetal baboons were transported on ice in RPMI 1640 medium containing 2 mM glutamine, 1 mM HEPES, 10 μg/ml gentamicin, 100 U/ml penicillin, 100 μg/ml streptomycin and 10% FBS. After a mild mechanical disruption, the single cell suspension was seeded in a tissue culture flask (Nalge-Nunc International Corp, NY) at a density of 30-50×10^6 leukocytes/175 cm^2 flask in RPMI 1640 medium containing 2 mM glutamine, 1 mM HEPES, 10 μg/ml gentamicin, 100 U/ml penicillin, 100 μg/ml streptomycin and 10% FBS. The light-density DC-populations were harvested using OptiPrep cell-separation solution (density 1.32 g/ml, Accurate Chemicals, NY) (Awasthi and Cooper, 2006; Awasthi et al., 2009). The immunophenotype and basic characteristics of the lung DC-population isolated from fetal and adult baboons have been described earlier (Awasthi et al., 2009). Here, first the immunophenotype of KG-1-derived DCs and fetal baboon lung DC-precursors or adult baboon lung DCs were compared by flow cytometry. Briefly, cells were suspended in Dulbecco's phosphate buffered saline (DPBS) containing 1% FBS and 0.09% sodium azide and incubated with fluorochrome-conjugated antibodies to HLA-DP, DQ, DR, CD11c, CD40, CD80, CD86 (typical DC-markers) as described earlier.
(§1) After confirming that the fluorescence is of phagocytosed bioparticles, comprehensive experiments were performed in presence and absence of effector molecules (SP-A and TLR4-MD2 proteins). […] The fluorescence readings were taken at 550 nm excitation and 600 nm emission wavelengths using SpectraMax M2 spectrofluorometer (Molecular Devices, CA).
(§2) The phagocytosis index was calculated by subtracting the average fluorescence intensity of the reaction with bioparticles alone from the control (basal without any effector molecules) and experimental wells. Finally, the percent effect was calculated using the following formula: % effect=(Net experimental phagocytosis/Net basal phagocytosis)×100%

The test system of another assay is KG-1-derived DCs. The assay can be described thus: Phagocytosis of pHrodo-labeled E. coli bioparticles by KG-1-derived DCs. The class given is cell-based, human. The following applies: MD2 alone 0.02-0.2 μM.
Text: Phagocytosis assay: In this Example, pHrodo-conjugated, heat-killed E. coli K12 (encapsulated) bioparticles (Invitrogen-Molecular Probes, CA) were employed. The pHrodo-fluorescent label offers an advantage over other conventional methods, in that it fluoresces only in acidic conditions (i.e., after the bioparticles are taken inside the intracellular lysosomes) (Invitrogen-Molecular Probes, CA). To ensure that the fluorescence relates to phagocytosed pHrodo-conjugated E. coli bioparticles only, the phagocytosis reaction mix was imaged by confocal microscopy. […]
as §1, §2

As to “SPA5: 20-mer synthetic peptide from C-terminal CRD of human SP-A; contains the first 10 amino acids of the SPA4 peptide (YVGLTEGPSPGDFRYSDGTP; listed as Homo sapiens)”, the “secretion of TNF-α, post-LPS model” value in the assay on JAWS II dendritic cells (peptide added after 4 hours LPS 75 ng/ml, both 1 and 10 μM) is “inhibited the secretion of TNF-α”. The “LPS-induced TNF-α, mean values” in the assay with JAWS II dendritic cells (1 μM peptide) was 8284 pg/mL; in the assay with JAWS II dendritic cells (10 μM peptide), 6319 pg/mL.
Take “SPA7: 20-mer synthetic peptide derived from the C-terminal Carbohydrate Recognition Domain of human SP-A (SLQGSIMTVGEKVFSSNGQS; listed as Homo sapiens)”: the “LPS-induced TNF-α secretion, pre-LPS model” value in the assay on JAWS II dendritic cells is given as “slight increase”.
On to “TLR4-MD2: soluble mixture of recombinant human TLR4 extracellular domain and MD2 proteins (R&D Systems) [reference compound]”, for which the “secretion of TNF-α by DCs in response to E. coli” value in assay [1] is given as “increased the TNF-α secretion significantly”. The “phagocytic uptake of E. coli” value in assay [2] was “increased”.
Regarding “SPA2: 20-mer synthetic peptide derived from the C-terminal Carbohydrate Recognition Domain of human SP-A (PAGRGKEQCVEMYTDGQWND; listed as Homo sapiens)”, in the assay with JAWS II dendritic cells, the “LPS-induced TNF-α secretion, pre-LPS model” value is on record as “slight increase”.
Still for that read-out and setting: the value for “SPA3: 20-mer synthetic peptide derived from the C-terminal Carbohydrate Recognition Domain of human SP-A (VNYTNWYRGEPAGRGKEQCV; listed as Homo sapiens)” was “slight increase”.

B1: MD2: recombinant human MD-2 protein, adaptor molecule for TLR4 (R&D Systems) (protein, listed as Homo sapiens)
chain: MLPFLFFSTLFSSIFTEAQKQYWVCNSSDASISYTYCDKMQYPISINVNPCIELKGSKGLLHIFYIPRRDLKQLYFNLYITVNTMNLPKRKEVICRGSDDDYSFCRALKGETVNTTISFSFKGIKFSKGKYKCVVEAISGSPEEMLFCLEFVILHQPNSN
Regarding B1, the “effect on phagocytosis of E. coli bioparticles” value in the assay with KG-1-derived DCs is given as “did not affect the phagocytosis”.
